For orientation: IC50 means the point on the concentration scale where inhibition reaches its midpoint. Usually Km stands for the concentration of substrate that gives half-maximal velocity.

Where “and” joins values, the source holds several entries; their conditions need not be identical. Equal entries are not always repeated.

Data set [1] addresses T1, rSsoPK4(284–635) (Saccharolobus solfataricus, UniProt Q97U41).
T1 construct: gene SSO3182; residues 284–635 (catalytic and part of central helical repeat domain), N-terminal S-tag, C-terminal 33-residue fusion domain with polyhistidine motif, pET-29b, expressed in E. coli
T1 sequence (Q97U41 284-635): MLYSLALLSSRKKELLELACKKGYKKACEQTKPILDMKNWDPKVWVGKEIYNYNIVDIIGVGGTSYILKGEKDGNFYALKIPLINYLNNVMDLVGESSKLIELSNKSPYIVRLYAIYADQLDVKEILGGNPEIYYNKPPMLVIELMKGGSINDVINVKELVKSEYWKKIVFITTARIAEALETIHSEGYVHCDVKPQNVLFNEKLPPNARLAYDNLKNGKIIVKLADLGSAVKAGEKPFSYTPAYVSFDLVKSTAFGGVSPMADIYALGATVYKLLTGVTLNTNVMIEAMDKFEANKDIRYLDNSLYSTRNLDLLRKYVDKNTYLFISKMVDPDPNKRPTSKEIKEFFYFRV
The experiment in a line: Filter paper [γ-32P]ATP kinase assay with MBP as phosphoacceptor, ATP routinely 100 µM, 5 mM MgCl2 and 5 mM MnCl2, 50 mM MOPS pH 7.0, 65 °C, in the presence of nucleotide effectors. Type of data set: biochemical. The procedure: (§1) Protein kinase activity was routinely assayed by the filter paper method of Corbin and Reimann as modified by Lower and Kennelly. The final volume of the assays was typically 50 μL. The quantity of rSsoPK4 assayed ranged from 0.1 to 5.0 µg. Both MgCl2 and MnCl2 were included at a final concentration of 5 mM each. The final concentration of [γ-^32P]ATP was 100 μM. The specific activity of the [γ-^32P]ATP generally ranged from 2 to 5 × 10^15 cpm/mol. Phosphoacceptor proteins were generally present at a concentration of 0.5–1.0 µg/µL. The assay mixture was typically incubated for a period of 30 min to one hour at 65 °C in 50 mM MOPS pH 7.0. On occasion, the proteins within the assay mixture were resolved by SDS-PAGE in order to identify the specific polypeptides that were phosphorylated. Radiolabeled species were visualized using an Instant Imager from Packard (Downers Grove, IL, USA).

Data set [2] has as its system rSsoPK4(284–635). Kind of data set: Protein kinase activity assay (filter paper method, [γ-32P]ATP, 65 °C) of rSsoPK4(284–635). Type of data set: biochemical, Sulfolobus solfataricus. The settings on record: for Vmax in the presence of CoAS-SCoA: CoAS-SCoA 1 mM; for effect on protein kinase activity toward MBP: MBP substrate, compounds at 1 mM (Figure 8); for Inhibitor: effector at 100 µM, MBP as phosphoacceptor substrate; for Km / Vmax toward protein substrate: no CoAS-SCoA, label = protein substrate, estimated. Here is the method:
as §1

Data set [3] has as its system rSsoPK4(284–635) T592D/T606D/S611D. Kind of data set: Protein kinase activity assay of rSsoPK4(284–635) T592D/T606D/S611D. Type of data set: biochemical, Sulfolobus solfataricus. As to conditions: for Km / Vmax toward protein substrate: no CoAS-SCoA, label = protein substrate. Here is the method: Figure 9 CoAS-SCoA activates rSsoPK4(284–635), but not rSsoPK4(284–635) T592D/T606D/S611D, in a concentration-dependent manner. The activity of rSsoPK4(284–635) (OPEN […]) and rSsoPK4(284–635) T592D/T606D/S611D (OPEN CIRCLES) were assayed, in duplicate, in the presence of the indicated concentrations of CoAS-SCoA using MBP as substrate. Shown is a plot of the activity relative to that measured in the absence of CoAS-SCoA, which was normalized as 1.0, plus or minus mean average deviation.

The test system of data set [4] is rSsoPK4(284–635)T606D/S611D. The experiment in a line: Protein kinase activity assay of rSsoPK4(284–635)T606D/S611D. Format: biochemical, Sulfolobus solfataricus.
Substrate in data set [5]: Nc1ncnc2c1ncn2[C@@H]1O[C@H](COP(=O)(O)OP(=O)(O)OP(=O)(O)O)[C@@H](O)[C@H]1O
The experiment in a line: Filter paper [32P]phosphate incorporation kinase assay with varied [γ-32P]ATP and mixed histones fixed at 70 µM as phosphoacceptor, 5 mM MgCl2 and 5 mM MnCl2, 50 mM MOPS pH 7.0, 65 °C; Lineweaver-Burk plot. Type of data set: biochemical.

In the case of `Nc1ncnc2c1ncn2[C@@H]1O[C@H](CO)[C@H]2OP(=O)(O)O[C@H]21` [2ʹ,3ʹ-cAMP, 2ʹ,3ʹ-cyclic AMP], the IC50 on rSsoPK4(284–635) [1] was 1550 µM.
On to `Nc1ncnc2c1ncn2[C@@H]1O[C@H](CO)[C@@H](OP(=O)(O)O)[C@H]1O` [3ʹ-AMP, adenosine 3'-monophosphate], for which the IC50 at rSsoPK4(284–635) [1] turned out to be 2100 µM.
Regarding `Nc1ncnc2c1ncn2[C@@H]1O[C@H](COP(=O)(O)O)[C@@H](O)[C@H]1O` [5'AMP, adenosine 5'-monophosphate], at rSsoPK4(284–635) [1], the IC50 came to 920 µM.
Same read-out and setting: then `Nc1ncnc2c1ncn2[C@@H]1O[C@H](COP(=O)(O)OP(=O)(O)O)[C@@H](O)[C@H]1O` [ADP, adenosine 5'-diphosphate], with 190 µM.
Consider `CC(C)(COP(=O)(O)OP(=O)(O)OC[C@H]1O[C@@H](n2cnc3c(N)ncnc32)C(O)[C@H]1OP(=O)(O)O)[C@@H](O)C(=O)NCCC(=O)NCCSSCCNC(=O)CCNC(=O)[C@H](O)C(C)(C)COP(=O)(O)OP(=O)(O)OC[C@H]1O[C@@H](n2cnc3c(N)ncnc32)C(O)[C@H]1OP(=O)(O)O` (stereo partly shown) [CoAS-SCoA, oxidized Coenzyme A], for which the “Vmax in the presence of CoAS-SCoA” value is 4.8 nmol/min/mg in the data set on rSsoPK4(284–635) [2] (protein substrate MBP (3.7 without)) and 2.9 nmol/min/mg in the data set on rSsoPK4(284–635) [2] (protein substrate aIF2α (4.2 without)). For the same molecule, in the data set with rSsoPK4(284–635) [2], the “effect on protein kinase activity toward MBP” value is given as “stimulate protein kinase activity toward MBP several-fold”. Moreover, the “shift (lowering) of Km for aIF2α by oxidized CoA” value in the data set on rSsoPK4(284–635) [2] (from ~48 µM in absence to ~6 µM in presence of oxidized CoA) is ~ 8 fold. For the same molecule, the “sensitivity of activity to oxidized CoA” value in data set [3] (MBP as substrate (Figure 9)) and in data set [4] was “no longer sensitive” in each case.
On to `NC(=O)C1=CN([C@@H]2O[C@H](COP(=O)(O)OP(=O)(O)OC[C@H]3O[C@@H](n4cnc5c(N)ncnc54)[C@H](O)[C@@H]3O)[C@@H](O)[C@H]2O)C=CC1` [NADH], for which the Inhibitor result in the data set with rSsoPK4(284–635) [2] is listed as “N (Where a change of ±20% or less in enzyme activity was observed, the compound was designated as non-inhibitory (N))”.
Same read-out and setting: then `NC(=O)C1=CN([C@@H]2O[C@H](COP(=O)(O)OP(=O)(O)OC[C@H]3O[C@@H](n4cnc5c(N)ncnc54)[C@H](OP(=O)(O)O)[C@@H]3O)[C@@H](O)[C@H]2O)C=CC1` [NADPH], with “N (Where a change of ±20% or less in enzyme activity was observed, the compound was designated as non-inhibitory (N))”; and `NC(=O)c1ccc[n+]([C@@H]2O[C@H](COP(=O)([O-])OP(=O)(O)OC[C@H]3O[C@@H](n4cnc5c(N)ncnc54)[C@H](OP(=O)(O)O)[C@@H]3O)[C@@H](O)[C@H]2O)c1` [NADP^+], with “N (Where a change of ±20% or less in enzyme activity was observed, the compound was designated as non-inhibitory (N))”; and `NC(=O)c1ccc[n+]([C@@H]2O[C@H](COP(=O)([O-])OP(=O)(O)OC[C@H]3O[C@@H](n4cnc5c(N)ncnc54)[C@H](O)[C@@H]3O)[C@@H](O)[C@H]2O)c1` [NAD^+], with “N (Where a change of ±20% or less in enzyme activity was observed, the compound was designated as non-inhibitory (N))”.
Same read-out and setting: the result for `Nc1ncnc2c1ncn2[C@@H]1O[C@H](COP(=O)(O)OS(=O)(=O)O)[C@@H](OP(=O)(O)O)[C@H]1O` [Phosphoadenosine phosphosulfate] reads “N (Where a change of ±20% or less in enzyme activity was observed, the compound was designated as non-inhibitory (N))”; that for `C[S+](CC[C@H](N)C(=O)[O-])C[C@H]1O[C@@H](n2cnc3c(N)ncnc32)[C@H](O)[C@@H]1O` (stereo partly shown) [S-Adenosyl-Methionine], “N (Where a change of ±20% or less in enzyme activity was observed, the compound was designated as non-inhibitory (N))”.
Same read-out and setting: the result for `Nc1ncnc2c1ncn2[C@@H]1O[C@H](CSCC[C@H](N)C(=O)O)[C@@H](O)[C@H]1O` [S-Adenosyl-homocysteine] reads “N (Where a change of ±20% or less in enzyme activity was observed, the compound was designated as non-inhibitory (N))”; that for `Cc1ncc(C[n+]2csc(CCOP(=O)(O)OP(=O)(O)O)c2C)c(N)n1` [Thiamine-PPi], “N (Where a change of ±20% or less in enzyme activity was observed, the compound was designated as non-inhibitory (N))”.
With Oxidized glutathione, the “effect on protein kinase activity toward MBP” value in the data set on rSsoPK4(284–635) [2] is “no effect”.

B1: MBP: myelin basic protein, exogenous phosphoacceptor substrate (protein, UniProt P02687 1-169, looked up)
Myelin basic protein: AAQKRPSQRSKYLASASTMDHARHGFLPRHRDTGILDSLGRFFGSDRGAPKRGSGKDGHHAARTTHYGSLPQKAQGHRPQDENPVVHFFKNIVTPRTPPPSQGKGRGLSLSRFSWGAEGQKPGFGYGGRASDYKSAHKGLKGHDAQGTLSKIFKLGGRDSRSGSPMARR
With B1, in the data set on rSsoPK4(284–635) [2], the Michaelis-Menten constant (Km) is 145 µM and the “Vmax toward protein substrate” value is 3.7 nmol/min/mg. For the same molecule, in data set [3], the Km was 17 µM and the “Vmax toward protein substrate” value was determined as 4.2 nmol/min/mg.

B2: aIF2α: recombinant protein product of ORF sso1050, archaeal homologue of eIF2α from S. solfataricus (protein, UniProt Q97Z79 1-266, looked up)
Translation initiation factor …: MIYSRSKLPSEGEILIATVKQVFDYGSYVSLDEYGGLQAFLPWSEVSSKWVKNIRDVLKENRKVIVKVIRVDRRKGTVDVSLKKVTDDERRKKNLQWKKIQRLDKILELVSQKLKLSEKDAWEQVAWKLEAKYGDPITAIEKAVKEGEKILIDAGVPEIWVKPLLEEASKHAEERKVKMSGLITVRTNEPLGVEKIKEVISKALENIEQDYESLLNIKIYTIGAPRYRVDVVGTNPKEASEALNQIISNLIKIGKEENVDISVVKK
On to B2, for which, in the data set on rSsoPK4(284–635) [2], the Km is ~48 µM and 48 µM; the “Vmax toward protein substrate” value was 4.2 nmol/min/mg. In data set [3], the Km came out at 4 µM and the “Vmax toward protein substrate” value came out at 1.9 nmol/min/mg.

B3: rSsoPK4(284–635) (Saccharolobus solfataricus P2) (protein)
chain: MLYSLALLSSRKKELLELACKKGYKKACEQTKPILDMKNWDPKVWVGKEIYNYNIVDIIGVGGTSYILKGEKDGNFYALKIPLINYLNNVMDLVGESSKLIELSNKSPYIVRLYAIYADQLDVKEILGGNPEIYYNKPPMLVIELMKGGSINDVINVKELVKSEYWKKIVFITTARIAEALETIHSEGYVHCDVKPQNVLFNEKLPPNARLAYDNLKNGKIIVKLADLGSAVKAGEKPFSYTPAYVSFDLVKSTAFGGVSPMADIYALGATVYKLLTGVTLNTNVMIEAMDKFEANKDIRYLDNSLYSTRNLDLLRKYVDKNTYLFISKMVDPDPNKRPTSKEIKEFFYFRV
notes: residues 284–635 (catalytic and part of central helical repeat domain), N-terminal S-tag, C-terminal 33-residue fusion domain with polyhistidine motif, pET-29b, expressed in E. coli
In the case of B3, the Michaelis constant (Km) in data set [5] was found to be 100 µM.

These data come from publication PMC5217372, “Activation of SsoPK4, an Archaeal eIF2α Kinase Homolog, by Oxidized CoA” (Proteomes, 2015).
